Assay: Rabbit pyrogen test
Details: ng CRX-601/kg animal body weight
Protocol: The test was performed at Pacific Biolabs (Hercules, Calif.) as per their SOP 16E-02, which follows procedures outlined in USP<151>.

SMILES: CCCCCCCCCCC[C@H](CC(=O)N[C@H]1[C@H](OC[C@H](NC(=O)C[C@@H](CCCCCCCCCCC)OCCCCCCCCCC)C(=O)O)O[C@H](CO)[C@@H](OP(=O)(O)O)[C@@H]1OC(=O)C[C@@H](CCCCCCCCCCC)OCCCCCCCCCC)OCCCCCCCCCC [CRX-601]
- max non-pyrogenic dose: 0.0025 µg/kg
